Here are results for 11 compounds from patent US7084151B2 (Ligand Pharmaceuticals Incorporated, priority 2002, dated 2006).

The target in data set [1] is T1, PR (Homo sapiens, UniProt P06401).
T1 construct: expressed in transfected cells; host or cells: CV-1 cells (African green monkey kidney fibroblasts), transiently transfected
T1 sequence (P06401 1-933): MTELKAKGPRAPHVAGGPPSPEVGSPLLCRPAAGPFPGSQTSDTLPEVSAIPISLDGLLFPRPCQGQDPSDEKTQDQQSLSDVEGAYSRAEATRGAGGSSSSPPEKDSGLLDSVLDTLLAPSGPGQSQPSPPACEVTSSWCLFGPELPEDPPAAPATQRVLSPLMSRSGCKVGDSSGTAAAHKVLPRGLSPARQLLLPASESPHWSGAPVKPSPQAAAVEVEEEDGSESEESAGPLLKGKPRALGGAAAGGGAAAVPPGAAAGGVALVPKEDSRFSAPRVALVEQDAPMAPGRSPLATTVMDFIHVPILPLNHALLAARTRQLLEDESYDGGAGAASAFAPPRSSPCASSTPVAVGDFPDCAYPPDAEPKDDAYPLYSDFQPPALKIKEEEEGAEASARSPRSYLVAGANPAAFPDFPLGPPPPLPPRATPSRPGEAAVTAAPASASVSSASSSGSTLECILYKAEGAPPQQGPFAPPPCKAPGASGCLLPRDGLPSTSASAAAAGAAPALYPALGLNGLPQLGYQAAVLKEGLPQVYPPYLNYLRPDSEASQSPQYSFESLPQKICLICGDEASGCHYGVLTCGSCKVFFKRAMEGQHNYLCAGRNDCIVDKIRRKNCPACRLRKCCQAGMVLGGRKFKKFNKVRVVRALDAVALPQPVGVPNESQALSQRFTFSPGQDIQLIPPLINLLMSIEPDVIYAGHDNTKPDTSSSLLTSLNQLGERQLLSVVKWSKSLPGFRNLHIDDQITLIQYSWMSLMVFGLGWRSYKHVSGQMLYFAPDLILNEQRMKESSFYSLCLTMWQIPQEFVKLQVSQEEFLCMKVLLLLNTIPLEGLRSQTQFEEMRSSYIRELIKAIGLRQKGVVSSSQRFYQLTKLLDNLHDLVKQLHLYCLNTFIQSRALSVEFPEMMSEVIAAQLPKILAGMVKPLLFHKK
The data set can be described thus: Cotransfection assay, PR agonist activity in CV-1 cells. In kind it is cell-based. The settings on record: for Emax: CV-1, read-out: PR Agonist CV-1 Cells Efficacy.
Procedure: (§1) Briefly, the cotransfection assays were carried out in CV-1 cells (African green monkey kidney fibroblasts), which were transiently transfected, by the standard calcium phosphate coprecipitation procedure (Berger, et al., J. Steroid Biochem. Mol. Bio. 1992, 41, 733–738) with the Plasmid containing receptor, MTV-LUC reporter, pRS-β-Gal, and filler DNA (Rous sarcoma virus chloramphenicol acetyltransferase). […] All the cotransfection experiments were carried out in 96-well plates by automation (Beckman Biomomek automated workstation).

For data set [2], the target named is T1, PR. In words: Cotransfection assay, PR antagonist activity in CV-1 cells. In kind it is cell-based. Particulars: for Emax: percent maximal response relative to reference antagonist, read-out: PR Antagonist CV-1 Cells Efficacy.
Procedure: as §1
The target of data set [3] is T2, hPR-A (Homo sapiens, UniProt P06401).
T2 sequence (P06401 1-769 isoform P06401-2): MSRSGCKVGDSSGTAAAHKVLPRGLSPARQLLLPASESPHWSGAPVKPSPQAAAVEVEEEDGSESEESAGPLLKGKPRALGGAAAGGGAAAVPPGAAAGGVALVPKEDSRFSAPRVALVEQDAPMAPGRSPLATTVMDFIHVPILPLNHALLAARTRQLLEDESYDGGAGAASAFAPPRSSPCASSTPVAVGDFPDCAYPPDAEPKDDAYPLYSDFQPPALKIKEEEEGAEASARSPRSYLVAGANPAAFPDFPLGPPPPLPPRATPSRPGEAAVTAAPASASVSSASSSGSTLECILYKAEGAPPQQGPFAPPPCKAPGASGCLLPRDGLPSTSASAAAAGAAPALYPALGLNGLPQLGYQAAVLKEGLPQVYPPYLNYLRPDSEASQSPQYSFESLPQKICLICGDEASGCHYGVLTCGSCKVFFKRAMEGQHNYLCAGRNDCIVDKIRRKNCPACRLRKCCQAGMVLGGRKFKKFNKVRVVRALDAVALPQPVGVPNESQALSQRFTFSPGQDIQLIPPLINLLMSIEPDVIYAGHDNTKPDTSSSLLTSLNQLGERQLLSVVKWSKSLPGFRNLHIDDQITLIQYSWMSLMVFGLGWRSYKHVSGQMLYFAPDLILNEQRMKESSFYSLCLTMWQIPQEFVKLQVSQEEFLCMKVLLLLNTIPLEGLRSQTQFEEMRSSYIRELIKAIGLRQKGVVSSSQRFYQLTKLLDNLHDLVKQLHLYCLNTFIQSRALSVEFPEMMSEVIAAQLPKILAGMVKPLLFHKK
The data set can be described thus: Receptor competitive binding assay. Particulars: read-out: PR Binding Ki.
Source text: The preparation of receptor binding assays for hPR-A was described in literature (Pathirana, et al., Mol. Pharm. 1995, 47, 630–635.)

Setting [4] is: CV-1 cells, MTV-LUC reporter, read-out: PR Agonist CV-1 Cells Potency (EC50).
Where [5] appears, read: CV-1 cells, MTV-LUC reporter, read-out: PR Antagonist CV-1 Cells Potency (IC50).

pEC50, pIC50, pKi: −log10 of the molar value. Read-outs that look alike come from different tables or passages of the source.

Turning to `CC#C[C@]1(O)CC[C@H]2[C@@H]3CCC4=CC(=O)CCC4=C3[C@@H](c3ccc(N(C)C)cc3)C[C@@]21C` [RU486, mifepristone, reference compound], the “PR Agonist CV-1 Cells Efficacy” value in data set [1] (CV-1 cells, percent maximal response relative to progesterone) is “na (na = not active (i.e. efficacy of <20 and potency of >1,000))”.

What is called pEC50 is the EC50 on a negative log10 scale, so that one unit is a factor of ten. For the compound `CC1(C)C=Cc2c(ccc3c2C(=C2SCCCS2)Oc2c(F)cccc2-3)N1` [Compound 21, 7-fluoro-5-(1,3-dithia-2-cyclohexylidene)-1,2-dihydro-2,2-dimethyl-5H-chromeno[3,4-f]quinoline], the Emax in data set [1] is 45%. Further, the negative-log EC50 (pEC50) in data set [1] (setting [4]) was 7.49.

By pIC50 is commonly meant the negative decadic logarithm of the IC50, by convention in mol/L. The pKi is the Ki on a negative log10 scale, so that one unit is a factor of ten. `COc1ccc2c(c1)OC(=C1SCCCS1)c1c-2ccc2c1C(C)=CC(C)(C)N2` [Compound 13, 8-methoxy-5-(1,3-dithia-2-cyclohexylidene)-1,2-dihydro-2,2,4-trimethyl-5H-chromeno[3,4-f]quinoline]: the pIC50 in data set [2] (setting [5]) is below 6.00. For the same compound, the Emax is below 20% in data set [2] (CV-1 cells) and 56% in data set [1]. Besides, in data set [3], the negative logarithm of the Ki (pKi) is 7.85. The pEC50 in data set [1] (setting [4]) was 7.49.

For `CC1=CC(C)(C)Nc2ccc3c(c21)C(=C1SCCCS1)Oc1c(F)cc(F)cc1-3` [Compound 15, 7,9-difluoro-5-(1,3-dithia-2-cyclohexylidene)-1,2-dihydro-2,2,4-trimethyl-5H-chromeno[3,4-f]quinoline], the pIC50 in data set [2] (setting [5]) is below 6.00. Besides, the figures for the Emax in data set [2] (CV-1 cells) and in data set [1] were below 20% and 155%, respectively. In data set [3], the pKi was 8.43. Further, in data set [1] (setting [4]), the pEC50 is 8.28.

In general, melting point refers to the temperature, or range, at which the solid turns liquid. In turn, `CC1=CC(C)(C)Nc2ccc3c(c21)C(=C1SCCCS1)Oc1ccc(F)cc1-3` [Compound 10, 9-Fluoro-5-(1,3-dithia-2-cyclohexylidene)-1,2-dihydro-2,2,4-trimethyl-5H-chromeno[3,4-f]quinoline] had a melting point of 120 to 122 °C. The pIC50 in data set [2] is below 6.00. In addition, the Emax in data set [2] (CV-1 cells) was below 20%. Besides, the pKi in data set [3] was 8.20. Moreover, in data set [1], the pEC50 is 8.70 and the Emax was found to be 144%.

Consider `CC1=CC(C)(C)Nc2ccc3c(c21)C(=C1SCCCS1)Oc1c(F)cccc1-3` [Compound 17, 7-fluoro-5-(1,3-dithia-2-cyclohexylidene)-1,2-dihydro-2,2,4-trimethyl-5H-chromeno[3,4-f]quinoline], for which the pIC50 in data set [2] (setting [5]) was below 6.00. Also, the Emax in data set [2] (CV-1 cells) was below 20%; in data set [1], 107%. The pKi in data set [3] was 8.37. For the same compound, in data set [1] (setting [4]), the pEC50 was 7.96.

As to `CN(C)c1ccc([C@H]2C[C@]3(C)[C@@H](CC[C@]3(O)CCCO)[C@@H]3CCC4=CC(=O)CCC4=C32)cc1` [ZK299, reference compound], the Emax was 99% in data set [2] (CV-1 cells) and below 20% in data set [1].

Take `CC1=CC(C)(C)Nc2ccc3c(c21)C(=C1CCCCC1)Oc1c(F)cccc1-3` [Compound 19, 7-fluoro-5-cyclohexylidene-1,2-dihydro-2,2,4-trimethyl-5H-chromeno[3,4-f]quinoline]: the pKi in data set [3] is 7.13. Further, the Emax in data set [1] is 48%. In addition, the pEC50 in data set [1] (setting [4]) is 7.42.

On to `CC(=O)[C@H]1CC[C@H]2[C@@H]3CCC4=CC(=O)CC[C@]4(C)[C@H]3CC[C@]12C` [Prog, progesterone, reference compound], for which the values for the Emax in data set [2] (CV-1 cells) and in data set [1] were below 20% and 100%, respectively.

`CC1=CC(C)(C)Nc2ccc3c(c21)C(=C1C=CCCC1)Oc1c(F)cccc1-3` [Compound 23, 7-fluoro-5-(2-cyclohexenylidene)-1,2-dihydro-2,2,4-trimethyl-5H-chromeno[3,4-f]quinoline]: the pIC50 in data set [2] (setting [5]) is below 6.00. Besides, the Emax was below 20% in data set [2] (CV-1 cells) and 70% in data set [1]. Besides, in data set [3], the pKi was 7.66. In data set [1] (setting [4]), the pEC50 is 7.46.

Take `CC1=CC(C)(C)Nc2ccc3c(c21)C(=C1CCCCC1)Oc1c(F)cc(F)cc1-3` [Compound 20, 7,9-difluoro-5-cyclohexylidene-1,2-dihydro-2,2,4-trimethyl-5H-chromeno[3,4-f]quinoline]: in data set [2] (setting [5]), the negative-log IC50 (pIC50) is below 6.00. For the same compound, the values for the Emax in data set [2] (CV-1 cells) and in data set [1] were below 20% and 82%, respectively. The pKi in data set [3] is 7.41. In addition, the negative-log EC50 (pEC50) in data set [1] (setting [4]) is 7.80.
